The source of these data is patent US8377974B2 (Millennium Pharmaceuticals, Inc., priority 2004, dated 2013).

Some results are limits rather than exact numbers.

For this assay, the target named is T1, human plasma protein factor Xa (Homo sapiens, UniProt P00742).
T1 construct: measure proteolytic activity of the enzyme (factor Xa); purchased Haematologic Technologies (Essex Junction, Vt.); host or cells: human plasma
T1 sequence (P00742 235-488 limits assumed): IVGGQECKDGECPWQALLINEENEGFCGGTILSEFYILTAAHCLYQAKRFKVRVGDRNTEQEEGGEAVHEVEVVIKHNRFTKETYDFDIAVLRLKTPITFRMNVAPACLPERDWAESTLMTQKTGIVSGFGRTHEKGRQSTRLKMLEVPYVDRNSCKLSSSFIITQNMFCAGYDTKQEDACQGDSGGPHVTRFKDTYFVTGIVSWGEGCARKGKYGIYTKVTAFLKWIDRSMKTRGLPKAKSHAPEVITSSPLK
T1 sequence (P00742 41-179 partner limits assumed): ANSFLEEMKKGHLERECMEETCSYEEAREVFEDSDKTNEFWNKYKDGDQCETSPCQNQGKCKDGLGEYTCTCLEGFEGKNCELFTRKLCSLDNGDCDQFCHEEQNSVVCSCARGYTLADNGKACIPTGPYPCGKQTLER
Description: Factor Xa IC50 determination: cleavage of paranitroanilide substrate S-2765 in 96-well plates. The assay is classed as biochemical. The note with it: fXa 1 nM, S-2765 100 μM, Tris buffered saline pH 7.4, room temperature. An outline of the steps:
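Human plasma factor Xa (1 nM) preincubated 5 min at room temperature with inhibitor (0.01 nM–10 μM final) in Tris-buffered saline pH 7.4 with 5 mM CaCl2, 0.1% BSA, 5% DMSO. S-2765 at 100 μM final; hydrolysis at 405 nm over 2 min. IC50 from 4-parameter fit of initial velocities.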
The compound `Cc1ccc(=O)n(-c2ccc(C3=NOC(CNC(=O)c4ccc(Cl)s4)C3)cc2)c1` (stereo not drawn) [Example 285, 5-Chloro-N-((3-(4-(5-methyl-2-oxopyridin-1(2H)-yl)phenyl)-4,5-dihydroisoxazol-5-yl)methyl)thiophene-2-carboxamide] gave an IC50 of no more than 0.1 µM.

In turn, `COc1ccc(=O)n(-c2ccc(C3=NOC(CNC(=O)c4ccc(Cl)s4)C3)cc2)c1` (stereo not drawn) [Example 286, 5-Chloro-N-((3-(4-(5-methoxy-2-oxopyridin-1(2H)-yl)phenyl)-4,5-dihydroisoxazol-5-yl)methyl)thiophene-2-carboxamide] showed an IC50 of no more than 0.1 µM.

In turn, `O=C(NCc1cc(-c2ccc(I)cc2)no1)c1ccc(Cl)s1` [Example 288, 5-Chloro-N-((3-(4-iodophenyl)isoxazol-5-yl)methyl)thiophene-2-carboxamide] yielded an IC50 of no less than 0.5 µM.

For `O=C(NCc1cc(-c2ccc(-n3ccccc3=O)cc2)no1)c1ccc(Cl)s1` [Example 289, 5-Chloro-N-((3-(4-(2-oxopyridin-1(2H)-yl)phenyl)isoxazol-5-yl)methyl)thiophene-2-carboxamide], the 50% inhibitory concentration (IC50) is no more than 0.1 µM.

In turn, `O=C(NCc1cn(-c2ccc(-n3ccccc3=O)cc2)nn1)c1ccc(Cl)s1` [Example 290, 5-Chloro-N-((1-(4-(2-oxopyridin-1(2H)-yl)phenyl)-1H-1,2,3-triazol-4-yl)methyl)thiophene-2-carboxamide] yielded an IC50 of no more than 0.1 µM.

Regarding `O=C(NCc1cn(-c2ccc(-n3cccc(F)c3=O)cc2)nn1)c1ccc(Cl)s1` [Example 291, 5-Chloro-N-((1-(4-(3-fluoro-2-oxopyridin-1(2H)-yl)phenyl)-1H-1,2,3-triazol-4-yl)methyl)thiophene-2-carboxamide], the IC50 is no more than 0.1 µM.

As for `O=C(NCc1cn(-c2ccc(-n3cccc(Cl)c3=O)cc2)nn1)c1ccc(Cl)s1` [Example 292, 5-Chloro-N-((1-(4-(3-chloro-2-oxopyridin-1(2H)-yl)phenyl)-1H-1,2,3-triazol-4-yl)methyl)thiophene-2-carboxamide], the IC50 is no more than 0.1 µM.

For `Cc1cccn(-c2ccc(-n3cc(CNC(=O)c4ccc(Cl)s4)nn3)cc2)c1=O` [Example 293, 5-Chloro-N-((1-(4-(3-methyl-2-oxopyridin-1(2H)-yl)phenyl)-1H-1,2,3-triazol-4-yl)methyl)thiophene-2-carboxamide], the IC50 is no more than 0.1 µM.

With `COc1cccn(-c2ccc(-n3cc(CNC(=O)c4ccc(Cl)s4)nn3)cc2)c1=O` [Example 294, 5-Chloro-N-((1-(4-(3-methoxy-2-oxopyridin-1(2H)-yl)phenyl)-1H-1,2,3-triazol-4-yl)methyl)thiophene-2-carboxamide], the IC50 was no more than 0.1 µM.

For the compound `Cc1ccn(-c2ccc(-n3cc(CNC(=O)c4ccc(Cl)s4)nn3)cc2)c(=O)c1` [Example 295, 5-Chloro-N-((1-(4-(4-methyl-2-oxopyridin-1(2H)-yl)phenyl)-1H-1,2,3-triazol-4-yl)methyl)thiophene-2-carboxamide], the IC50 is no more than 0.1 µM.

With `Cc1ccc(=O)n(-c2ccc(-n3cc(CNC(=O)c4ccc(Cl)s4)nn3)cc2)c1` [Example 296, 5-Chloro-N-((1-(4-(5-methyl-2-oxopyridin-1(2H)-yl)phenyl)-1H-1,2,3-triazol-4-yl)methyl)thiophene-2-carboxamide], the half-maximal inhibitory concentration (IC50) was no more than 0.1 µM.

`COc1ccc(=O)n(-c2ccc(-n3cc(CNC(=O)c4ccc(Cl)s4)nn3)cc2)c1` [Example 297, 5-Chloro-N-((1-(4-(5-methoxy-2-oxopyridin-1(2H)-yl)phenyl)-1H-1,2,3-triazol-4-yl)methyl)thiophene-2-carboxamide]: the IC50 was no more than 0.1 µM.

Compound `O=C(NCc1cn(-c2ccc(-n3cc(F)ccc3=O)cc2)nn1)c1ccc(Cl)s1` [Example 298, 5-Chloro-N-((1-(4-(5-fluoro-2-oxopyridin-1(2H)-yl)phenyl)-1H-1,2,3-triazol-4-yl)methyl)thiophene-2-carboxamide] showed an IC50 of no more than 0.1 µM.

For `O=C(NCc1cn(-c2ccc(-n3cc(Cl)ccc3=O)cc2)nn1)c1ccc(Cl)s1` [Example 299, 5-Chloro-N-((1-(4-(5-chloro-2-oxopyridin-1(2H)-yl)phenyl)-1H-1,2,3-triazol-4-yl)methyl)thiophene-2-carboxamide], the 50% inhibitory concentration (IC50) was no more than 0.1 µM.

`O=C(NCc1cn(-c2ccc(N3CCCCC3=O)cc2)nn1)c1ccc(Cl)s1` [Example 300, 5-Chloro-N-((1-(4-(2-oxopiperidin-1-yl)phenyl)-1H-1,2,3-triazol-4-yl)methyl)thiophene-2-carboxamide] displayed an IC50 of no more than 0.1 µM.

`O=C(NCc1cn(-c2ccc(N3CCOCC3=O)cc2)nn1)c1ccc(Cl)s1` [Example 301, 5-Chloro-N-((1-(4-(3-oxomorpholino)phenyl)-1H-1,2,3-triazol-4-yl)methyl)thiophene-2-carboxamide] registered a half-inhibitory concentration (IC50) of no more than 0.1 µM.

Compound `O=C(NCc1cn(-c2ccc(N3CCSCC3=O)cc2)nn1)c1ccc(Cl)s1` [Example 302, 5-Chloro-N-((1-(4-(3-oxothiomorpholino)phenyl)-1H-1,2,3-triazol-4-yl)methyl)thiophene-2-carboxamide] gave an IC50 of no more than 0.1 µM.

On to `O=C(NCc1cn(-c2ccc(N3CCOCCC3=O)cc2)nn1)c1ccc(Cl)s1` [Example 303, 5-Chloro-N-((1-(4-(5-oxo-1,4-oxazepan-4-yl)phenyl)-1H-1,2,3-triazol-4-yl)methyl)thiophene-2-carboxamide], for which the IC50 was no more than 0.1 µM.

Consider `O=C(NCc1cn(-c2ccc(I)cc2F)nn1)c1ccc(Cl)s1` [Example 304, 5-Chloro-N-((1-(2-fluoro-4-iodophenyl)-1H-1,2,3-triazol-4-yl)methyl)thiophene-2-carboxamide], for which the IC50 is no less than 0.5 µM.

On to `O=C(NCc1cn(-c2ccc(-n3ccccc3=O)cc2F)nn1)c1ccc(Cl)s1` [Example 305, 5-Chloro-N-((1-(2-fluoro-4-(2-oxopyridin-1(2H)-yl)phenyl)-1H-1,2,3-triazol-4-yl)methyl)thiophene-2-carboxamide], for which the IC50 was no more than 0.1 µM.

In turn, `O=C(NCc1cn(-c2ccc(N3CCOCC3=O)cc2F)nn1)c1ccc(Cl)s1` [Example 306, 5-Chloro-N-((1-(2-fluoro-4-(3-oxomorpholino)phenyl)-1H-1,2,3-triazol-4-yl)methyl)thiophene-2-carboxamide] came in with an IC50 of no more than 0.1 µM.

`O=C(NCc1cn(-c2ccc(-n3ccccc3=O)cc2O)nn1)c1ccc(Cl)s1` [Example 307, 5-Chloro-N-((1-(2-hydroxy-4-(2-oxopyridin-1(2H)-yl)phenyl)-1H-1,2,3-triazol-4-yl)methyl)thiophene-2-carboxamide] came in with an IC50 of no more than 0.1 µM.

In turn, `CN1CCN(c2cc(-n3ccccc3=O)ccc2-n2cc(CNC(=O)c3ccc(Cl)s3)nn2)CC1` [Example 308, 5-Chloro-N-((1-(2-(4-methylpiperazin-1-yl)-4-(2-oxopyridin-1(2H)-yl)phenyl)-1H-1,2,3-triazol-4-yl)methyl)thiophene-2-carboxamide] showed a 50% inhibitory concentration (IC50) of no more than 0.1 µM.

As to `O=C(NCc1cn(-c2ccc(-n3ccccc3=O)cn2)nn1)c1ccc(Cl)s1` [Example 309, 5-Chloro-N-((1-(5-(2-oxopyridin-1(2H)-yl)pyridin-2-yl)-1H-1,2,3-triazol-4-yl)methyl)thiophene-2-carboxamide], the IC50 was no more than 0.1 µM.

In turn, `O=C(NCc1cc(-c2ccc(-n3ccccc3=O)nc2)no1)c1ccc(Cl)s1` [Example 310, 5-Chloro-N-((3-(6-(2-oxopyridin-1(2H)-yl)pyridin-3-yl)isoxazol-5-yl)methyl)thiophene-2-carboxamide] displayed an IC50 of no more than 0.1 µM.

Turning to `O=C(NCc1nc(-c2ccc(-n3ccccc3=O)cc2)no1)c1ccc(Cl)s1` [Example 311, 5-Chloro-N-((3-(4-(2-oxopyridin-1(2H)-yl)phenyl)-1,2,4-oxadiazol-5-yl)methyl)thiophene-2-carboxamide], the IC50 was no more than 0.1 µM.

Take `CN1CCN=C1c1ccc(-n2cc(CNC(=O)c3ccc(Cl)s3)nn2)cc1` [Example 312, 5-Chloro-N-((1-(4-(1-methyl-4,5-dihydro-1H-imidazol-2-yl)phenyl)-1H-1,2,3-triazol-4-yl)methyl)thiophene-2-carboxamide]: the half-maximal inhibitory concentration (IC50) was no more than 0.1 µM.

Regarding `CN(C)C(=N)c1ccc(-n2cc(CNC(=O)c3ccc(Cl)s3)nn2)cc1` [Example 313, N-((1-(4-(N,N-Dimethylcarbamimidoyl)phenyl)-1H-1,2,3-triazol-4-yl)methyl)-5-chlorothiophene-2-carboxamide], the IC50 is no more than 0.1 µM.

Consider `CCN(C)C(=N)c1ccc(-n2cc(CNC(=O)c3ccc(Cl)s3)nn2)cc1` [Example 314, N-((1-(4-(N-Ethyl-N-methylcarbamimidoyl)phenyl)-1H-1,2,3-triazol-4-yl)methyl)-5-chlorothiophene-2-carboxamide], for which the IC50 was no more than 0.1 µM.

Take `CCCN(C)C(=N)c1ccc(-n2cc(CNC(=O)c3ccc(Cl)s3)nn2)cc1` [Example 315, N-((1-(4-(N-Methyl-N-propylcarbamimidoyl)phenyl)-1H-1,2,3-triazol-4-yl)methyl)-5-chlorothiophene-2-carboxamide]: the IC50 is no more than 0.1 µM.

For the compound `COCCN(C)C(=N)c1ccc(-n2cc(CNC(=O)c3ccc(Cl)s3)nn2)cc1` [Example 316, N-((1-(4-(N-(2-Methoxyethyl)-N-methylcarbamimidoyl)phenyl)-1H-1,2,3-triazol-4-yl)methyl)-5-chlorothiophene-2-carboxamide], the IC50 is no more than 0.1 µM.

`N=C(c1ccc(-n2cc(CNC(=O)c3ccc(Cl)s3)nn2)cc1)N1CCC1` [Example 317, N-((1-(4-(Azetidin-1-yl(imino)methyl)phenyl)-1H-1,2,3-triazol-4-yl)methyl)-5-chlorothiophene-2-carboxamide]: the IC50 is no more than 0.1 µM.

`N=C(c1ccc(-n2cc(CNC(=O)c3ccc(Cl)s3)nn2)cc1)N1CCCC1` [Example 318, 5-Chloro-N-((1-(4-(imino(pyrrolidin-1-yl)methyl)phenyl)-1H-1,2,3-triazol-4-yl)methyl)thiophene-2-carboxamide] showed a half-inhibitory concentration (IC50) of no more than 0.1 µM.
